The values that follow come from PubChem BioAssay AID1627 (PCMD, 2009).

Structures are written as SMILES. Inconclusive results are not listed. Calls of active or inactive are those of the source. No rule for the calls is given here.

Sequence of Procathepsin L (Homo sapiens) (P07711 114-288 limits assumed): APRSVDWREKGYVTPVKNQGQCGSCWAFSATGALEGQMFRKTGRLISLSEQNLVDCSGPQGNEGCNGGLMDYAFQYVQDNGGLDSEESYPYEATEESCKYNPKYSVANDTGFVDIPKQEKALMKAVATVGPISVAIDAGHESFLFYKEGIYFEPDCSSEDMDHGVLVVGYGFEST
Sequence of Procathepsin L (Homo sapiens) (P07711 292-333 limits assumed): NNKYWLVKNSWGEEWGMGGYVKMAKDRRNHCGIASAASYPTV

The test addresses Procathepsin L (Homo sapiens) (UniProt P07711). Description: cathepsin L inhibition with added cysteine, dose response, biochemical, cysteine present (AID 1627). The conditions noted are these: purified cathepsin L, fluorogenic substrate.
In the case of `N#CC1=C(N)Oc2c(sc3ccccc23)C1c1ccco1` (stereo not given), the IC50 – broadly, the concentration at which inhibition is half-maximal – was > 50 µM (inactive).

Consider `COc1ccc(OC)c(C2C(C#N)=C(N)Oc3cc(C)n(Cc4ccccn4)c(=O)c32)c1` (stereo not given), for which the IC50 was > 50 µM (inactive).

As to `CCCCOc1ccc(C2C3CN(C(=O)OCC)CC=C3C(C#N)=C(N)C2(C#N)C#N)cc1OC` (stereo not given), the IC50 is > 50 µM (inactive).

As for `Nc1nc2n(n1)C1(CCCCC1)C1=C(CCCC1)N2`, the IC50 is > 50 µM (inactive).

As for `CC(=O)c1c(O)n(C)c(=S)n(-c2ccccc2)c1=O`, the IC50 is > 50 µM (inactive).

With `CC1=C(C(=O)Nc2ccc(F)cc2)C(c2cccc(C)c2)n2nc(CCCO)nc2N1` (stereo not given), the IC50 was > 50 µM (inactive).

For `CCCCc1[nH]nc2c1C1(C(=O)N(CC)c3ccccc31)C(C#N)=C(N)O2` (stereo not given), the IC50 was > 50 µM (inactive).

On to `O=S(=O)(/N=S1/CC=CCN1S(=O)(=O)c1ccccc1)c1ccccc1` (stereo not given), for which the IC50 was > 50 µM (inactive).

As for `CN1CCc2c(sc3ncn4nc(-c5ccccc5O)nc4c23)C1`, the IC50 is 32 µM.

Turning to `CC(=O)Nc1nc2n(n1)C(c1ccc(F)cc1)C=C(c1ccccc1)N2` (stereo not given), the IC50 is > 50 µM (inactive).
